Measurements published in patent publication US20170334959A1 (priority 2015, published 2017).
Entries after “also recorded” stand apart in the source; their conditions may differ. No end group written: not given here.

Experiments:
human Nav1.6 = human Nav1.6 (Homo sapiens, UniProt Q9UQD0); type: cell-based
human Nav1.7 = human Nav1.7 (Homo sapiens, UniProt Q15858, W1161R); type: cell-based; conditions: read-out: Nav1.7 IC50
[1] = system: CFA-induced thermal hyperalgesia; set-up: species or system mice; conditions: mouse, in vivo
[2] = system: CFA-induced tactile allodynia; set-up: species or system mice; conditions: mouse, in vivo
[3] = system: thermal withdrawal latency; set-up: species or system mice; conditions: mouse, in vivo
[4] = system: carrageenan-induced thermal hyperalgesia; set-up: species or system mice; conditions: mouse, in vivo
[5] = system: acute thermal pain (tail withdrawal latency); conditions: in vivo
[6] = system: acute thermal pain (hot plate latency); conditions: in vivo
[7] = system: formalin-induced flinching (injury-induced pain); conditions: rat, in vivo
[8] = system: acute and inflammatory pain; conditions: in vivo; cited from earlier work
isolated nerves = conditions: cited from earlier work

Sequence of human Nav1.6 (Q9UQD0 whole entry): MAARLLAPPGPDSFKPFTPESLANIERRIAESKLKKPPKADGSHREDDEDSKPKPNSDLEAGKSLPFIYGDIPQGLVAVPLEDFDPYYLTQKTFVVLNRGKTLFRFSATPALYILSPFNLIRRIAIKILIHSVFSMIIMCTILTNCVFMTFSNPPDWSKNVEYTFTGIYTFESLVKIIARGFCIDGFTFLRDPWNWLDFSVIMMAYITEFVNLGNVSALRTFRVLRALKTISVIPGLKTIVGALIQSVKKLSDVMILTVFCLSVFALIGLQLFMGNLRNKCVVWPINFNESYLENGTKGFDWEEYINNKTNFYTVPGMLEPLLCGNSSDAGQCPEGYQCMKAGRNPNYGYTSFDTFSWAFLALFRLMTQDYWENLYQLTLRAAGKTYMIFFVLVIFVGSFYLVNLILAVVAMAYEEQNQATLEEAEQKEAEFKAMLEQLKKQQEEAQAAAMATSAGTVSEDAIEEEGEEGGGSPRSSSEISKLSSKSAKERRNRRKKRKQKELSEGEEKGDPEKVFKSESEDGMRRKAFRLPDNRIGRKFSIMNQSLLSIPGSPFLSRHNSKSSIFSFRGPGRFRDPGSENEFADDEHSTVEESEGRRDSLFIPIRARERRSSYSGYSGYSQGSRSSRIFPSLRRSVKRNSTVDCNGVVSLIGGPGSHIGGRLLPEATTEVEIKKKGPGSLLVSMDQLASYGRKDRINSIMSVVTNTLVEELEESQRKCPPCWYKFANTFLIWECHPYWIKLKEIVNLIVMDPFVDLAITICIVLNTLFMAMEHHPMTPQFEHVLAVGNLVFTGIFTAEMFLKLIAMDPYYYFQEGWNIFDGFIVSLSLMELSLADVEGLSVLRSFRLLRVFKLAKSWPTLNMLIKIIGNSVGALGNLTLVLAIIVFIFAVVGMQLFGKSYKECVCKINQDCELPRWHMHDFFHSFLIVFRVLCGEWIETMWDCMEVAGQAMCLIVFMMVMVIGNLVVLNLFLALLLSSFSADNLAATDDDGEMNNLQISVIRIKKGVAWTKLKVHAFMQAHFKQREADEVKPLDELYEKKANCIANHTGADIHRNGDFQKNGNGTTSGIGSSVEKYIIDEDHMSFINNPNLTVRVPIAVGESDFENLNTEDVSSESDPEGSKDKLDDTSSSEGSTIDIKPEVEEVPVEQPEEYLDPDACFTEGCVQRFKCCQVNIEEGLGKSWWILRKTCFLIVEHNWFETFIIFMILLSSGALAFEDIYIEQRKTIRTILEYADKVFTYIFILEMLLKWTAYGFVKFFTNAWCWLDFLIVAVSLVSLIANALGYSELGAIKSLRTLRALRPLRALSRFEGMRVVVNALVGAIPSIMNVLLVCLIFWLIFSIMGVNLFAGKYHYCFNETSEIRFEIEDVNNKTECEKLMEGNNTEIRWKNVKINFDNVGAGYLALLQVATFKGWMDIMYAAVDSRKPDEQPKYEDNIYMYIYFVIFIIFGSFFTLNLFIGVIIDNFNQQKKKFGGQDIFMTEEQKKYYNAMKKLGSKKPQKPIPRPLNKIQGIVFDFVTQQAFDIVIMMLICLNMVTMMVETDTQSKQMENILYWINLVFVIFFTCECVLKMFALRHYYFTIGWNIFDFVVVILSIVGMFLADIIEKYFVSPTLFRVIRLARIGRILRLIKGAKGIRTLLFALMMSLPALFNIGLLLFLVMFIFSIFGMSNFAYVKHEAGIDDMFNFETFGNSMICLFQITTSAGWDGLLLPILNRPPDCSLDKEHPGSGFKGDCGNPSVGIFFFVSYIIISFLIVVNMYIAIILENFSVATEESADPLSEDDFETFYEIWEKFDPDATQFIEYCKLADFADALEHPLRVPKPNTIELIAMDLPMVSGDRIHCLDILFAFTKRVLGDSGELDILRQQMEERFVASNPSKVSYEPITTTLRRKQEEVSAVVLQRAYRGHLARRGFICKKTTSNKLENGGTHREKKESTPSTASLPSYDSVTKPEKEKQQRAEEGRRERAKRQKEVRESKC

Row | Substance | selectivity for Nav1.7 compared to recombinant Protoxin-II (human Nav1.6) | IC50 (human Nav1.7) | other results
1 | Ac-QCQKWMQTCDAERKCCEGFSCTLWCKKKLW-NH2 [(-GP) N-Ac-NV1D2974-NH2] | improved selectivity | – | –
2 | Ac-QCQKWMQTCDRERKCCEGFVCTLWCRKKLW-NH2 [(-GP) N-Ac-NV1D3034-NH2] | improved selectivity | – | –
3 | GPACQKWMQTCDANRKCCEGFSCRLWCKKKLW-OH (cysteine pairing not given here) [NV1D3587] | improved selectivity | – | –
4 | GPACQKWMQTCDRNRKCCEGFVCTLWCRKKLW-OH (cysteine pairing not given here) [NV1D3541] | improved selectivity | – | –
5 | GPCCNCSSKWCRDHSRCCGRGSAPAPAPAPAPAPAPAPAPAPGSQCQKWMQTCDAERKCCEGFVCRLWCKKKLW [NV1D3260] | – | 57.6 nM | –
6 | GPCCNCSSKWCRDHSRCCGRGSAPAPAPAPAPAPAPAPAPAPGSQCQKWMQTCDRERKCCEGFVCTLWCRKKLW [NV1D3793] | – | 64.6 nM | –
7 | GPCCNCSSKWCRDHSRCCGRGSAPAPAPAPAPGSQCQKWMQTCDAERKCCEGFVCRLWCKKKLW [NV1D3256] | – | 55.7 nM | –
8 | GPCCNCSSKWCRDHSRCCGRGSGGGGSAPAPAPAPAPAPAPAPAPAPGGGGSGSQCQKWMQTCDRERKCCEGFVCTLWCRKKLW [NV1D3830] | – | 88.6 nM | –
9 | GPCCNCSSKWCRDHSRCCGSAPAPAPAPAPAPAPAPAPAPGSQCQKWMQTCDAERKCCEGFVCRLWCKKKLW [NV1D3262] | – | 89.2 nM | –
10 | GPCCNCSSKWCRDHSRCCGSAPAPAPAPAPAPAPAPAPAPGSQCQKWMQTCDRERKCCEGFVCTLWCRKKLW [NV1D3795] | – | 100 nM | –
11 | GPCCNCSSKWCRDHSRCCGSAPAPAPAPAPGSQCQKWMQTCDRERKCCEGFVCTLWCRKKLW [NV1D3796] | – | 110 nM | –
12 | GPCRTIGPSVCAPAPAPAPAPAPAPAPAPAPQCQKWMQTCDRERKCCEGFVCTLWCRKKLW [NV1D3832] | – | 88.4 nM | –
13 | GPGWCGDPGATCGKLRLYCCSGFCDAYTKTCKDKSSAGGGGSAPAPAPAPAPAPAPAPAPAPAPAPAPAPAPGGGGSQCQKWMQTCDRERKCCEGFVCTLWCRKKLW [NV1D3824] | – | 110 nM | –
14 | GPGWCGDPGATCGKLRLYCCSGFCDSYTKTCKDKSSAGGGGSAPAPAPAPAPAPAPAPAPAPAPAPAPAPAPGGGGSQCQKWMQTCDRERKCCEGFVCTLWCRKKLW [NV1D3822] | – | 74.2 nM | –
15 | GPQCQDWMQTCDRERDCCEGFVCTLWCRKKLW-OH (cysteine pairing not given here) [NV1D3379] | – | 31.6 nM | –
16 | GPQCQKWMQSCDRERKCCEGFVCTLWCRKKLW-OH (cysteine pairing not given here) [NV1D3359] | improved selectivity | – | –
17 | GPQCQKWMQTCDAERKCCEGFSCTLWCKKKLW-NH2 [NV1D2974-NH2] | improved selectivity | – | –
18 | GPQCQKWMQTCDAERKCCEGFSCTLWCKKKLW-OH (cysteine pairing not given here) [NV1D2974] | improved selectivity | – | –
19 | GPQCQKWMQTCDAERKCCEGFVCRLWCKKKLW-NH2 [NV1D2775-NH2] | improved selectivity | – | –
20 | GPQCQKWMQTCDAERKCCEGFVCRLWCKKKLW-OH (cysteine pairing not given here) [NV1D2775] | improved selectivity | – | efficacy in the CFA model / reversal of CFA-induced thermal hyperalgesia [1]: strong efficacy; thermal latencies in the CFA model [1]: close to the cut-off; time at which anti-hyperalgesic effect was first seen post-pump implantation [1]: ≤ 4 h; time by which thermal latency returned to the control level post pump implantation [1]: ≤ 48 h; time of maximum effect, thermal test [1]: 8 h; reversal of CFA-induced tactile allodynia [2]: reversed; time by which tactile threshold returned to the control level post pump implantation [2]: ≤ 48 h; time of maximum effect, tactile test [2]: 8 h; efficacy in the hot plate test [3]: strong, dose-dependent efficacy; also recorded: significant analgesia; hotplate latencies at 50 and 55° C. [3]: near cut-off; hotplate thermal latency compared to the PBS control [3]: modest yet significant increase; analgesia in the carrageenan study (thermal withdrawal latency) [4]: significant analgesia; protection from carrageenan-induced thermal hyperalgesia [4]: fully protected; efficacy in the tail flick test [5]: significant efficacy; efficacy in the hot plate test [6]: significant efficacy; efficacy in the formalin test (flinches) [7]: significant efficacy
21 | GPQCQKWMQTCDAERKCCEGFVCRLWCKKKLWGSAPAPAPAPAPAPAPAPAPAPGSCCNCSSKWCRDHSRCCGR [NV1D3259] | – | 54.9 nM | –
22 | GPQCQKWMQTCDARRKCCEGFVCRLWCKKKLW-OH (cysteine pairing not given here) [NV1D3006] | improved selectivity | – | –
23 | GPQCQKWMQTCDRERKCCEGFVCTLWCRKKLW-NH2 [NV1D3034-NH2] | improved selectivity | – | –

Row | Substance | selectivity for Nav1.7 compared to recombinant Protoxin-II (human Nav1.6) | IC50 (human Nav1.7) | other results
24 | GPQCQKWMQTCDRERKCCEGFVCTLWCRKKLW-NH-butyl [NV1D3034-NH-butyl] | improved selectivity | – | –
25 | GPQCQKWMQTCDRERKCCEGFVCTLWCRKKLW-NH-methyl [NV1D3034-NH-methyl] | improved selectivity | – | efficacy in the CFA model / reversal of CFA-induced thermal hyperalgesia [1]: readily reversed; Thermal MPE % ([1]; sc): 49 ± 17%
26 | GPQCQKWMQTCDRERKCCEGFVCTLWCRKKLW-OH (cysteine pairing not given here) [NV1D3034] | – | – | reversal of CFA-induced thermal hyperalgesia ([1]; sc): completely reversed; efficacy in the tail flick test [5]: significant efficacy; efficacy in the hot plate test [6]: significant efficacy; efficacy in the formalin test (flinches) [7]: significant efficacy
27 | GPQCQKWMQTCDRERKCCEGFVCTLWCRKKLWGGGGSAPAPAPAPAPAPAPAPAPAPAPAPAPAPAPGGGGSGWCGDPGATCGKLRLYCCSGFCDAYTKTCKDKSSA [NV1D3825] | – | 194 nM | –
28 | GPQCQKWMQTCDRERKCCEGFVCTLWCRKKLWGSAPAPAPAPAPAPAPAPAPAPGSCCNCSSKWCRDHSRCC [NV1D3797] | – | 91.1 nM | –
29 | GPQCQKWMQTCDRERKCCEGFVCTLWCRKKLWGSAPAPAPAPAPAPAPAPAPAPGSCCNCSSKWCRDHSRCCGR [NV1D3798] | – | 94.5 nM | –
30 | GPQCQKWMQTCDRERKCCEGFVCTLWCRKKLWGSAPAPAPAPAPGSCCNCSSKWCRDHSRCC [NV1D3799] | – | 50.6 nM | –
31 | GPQCQKWMQTCDRERKCCEGFVCTLWCRKKLWGSAPAPAPAPAPGSCCNCSSKWCRDHSRCCGR [NV1D3800] | – | 60.9 nM | –
32 | GPQCQKWMQTCDRERKCCEGFVCTLWCRKKLWGSGGGGSAPAPAPAPAPAPAPAPAPAPGGGGSGSCCNCSSKWCRDHSRCC [NV1D3829] | – | 122 nM | –
33 | GPQCQKWMQTCDRERKCCEGFVCTLWCRKKLWGSGGGGSAPAPAPAPAPAPAPAPAPAPGGGGSGSCCNCSSKWCRDHSRCCGR [NV1D3828] | – | 87.5 nM | –
34 | GPQCQKWMQTCDRERKCCQGFVCTLWCRKKLW-OH (cysteine pairing not given here) [NV1D3388] | improved selectivity | – | –
35 | GPQCQKWMQTCDRNRKCCEGFVCTLWCRKKLW-OH (cysteine pairing not given here) [NV1D3044] | improved selectivity | – | –
36 | GPQCQKWMQTCDRTRKCCEGFVCTLWCRKKLW-NH2 [NV1D3368-NH2] | improved selectivity | – | efficacy in the CFA model / reversal of CFA-induced thermal hyperalgesia [1]: readily reversed
37 | GPQCQKWMQTCDRTRKCCEGFVCTLWCRKKLW-OH (cysteine pairing not given here) [NV1D3368] | improved selectivity | – | reversal of CFA-induced thermal hyperalgesia ([1]; sc): fully reversed
38 | GPRCQKWMQTCDAERKCCEGFVCRLWCKKKLW-OH (cysteine pairing not given here) [NV1D2772] | improved selectivity | – | –
39 | GPSCQKWMQTCDAERKCCEGFVCRLWCKKKLW-OH (cysteine pairing not given here) [NV1D2773] | improved selectivity | – | –
40 | GPSHSNTQTLAKAPEHTGAPAPAPAPAPAPAPAPAPAPQCQKWMQTCDRERKCCEGFVCTLWCRKKLW [NV1D3774] | – | 88.6 nM | –
41 | GPYCQKWMQTCDANRKCCEGFSCRLWCKKKLW-NH2 [NV1D3586-NH2] | improved selectivity | – | –
42 | GPYCQKWMQTCDANRKCCEGFSCRLWCKKKLW-OH (cysteine pairing not given here) [NV1D3586] | improved selectivity | – | –
43 | GPYCQKWMQTCDSERKCCEGMVCRLWCKKKLL-OH (cysteine pairing not given here) [compound 63955918] | – | – | efficacy in the tail flick test [5]: potent and prolonged analgesia; efficacy in the hot plate test [6]: potent and prolonged analgesia; efficacy in the formalin test (flinches) [7]: less flinches
44 | GPYCQKWMWTCDSERKCCEGMVCRLWCKKKLW-COOH [NV1D12, reference compound] | – | – | selectivity, ratio IC50(Nav1.6)/IC50(Nav1.7) in QPatch (human Nav1.6): about 28 fold
45 | YCQKWMWTCDSERKCCEGMVCRLWCKKKLW-COOH [wild-type Protoxin-II] | – | – | efficacy in rodent models of acute and inflammatory pain [8]: non-efficacious; inhibition of action potential firing in isolated nerves (isolated nerves): inability
